Test results published in patent US20190230931A1, “SURFACE TREATMENTS” (priority 2014, published 2019).
Converted amounts (≈) assume the structure as drawn. Like-named read-outs stand apart in the source and are kept apart here.

What was measured:
Type in all cases: cell-based
[1] = tested on: Pseudomonas aeruginosa clinical isolate; experiment: Susceptibility of clinical isolates by broth microdilution (MIC/MBC); settings: for MBC: broth microdilution and plating, read-out: Minimum bactericidal concentration (MBC); for MIC: broth microdilution, 37° C., 18 hours, read-out: Minimum inhibitory concentration (MIC)
Experimental: (§1) Frozen stocks of the Staphylococcus sp. inocula were thawed at 37° C. for 10 minutes and vortexed before plating on blood agar and incubating at 37° C. for 18 hours. Single colonies were used to inoculate a volume of 10 mL of Mueller-Hinton Broth (MHB) and incubated at 37° C. for 18 hours in a shaking incubator (200 rpm). A volume of 100 μL of the actively growing culture was then used to inoculate a volume of 100 mL of MHB and incubated at 37° C. for 6½ hours. […] A volume of 100 μL of each dilution step was spread on plate count agar (PCA) plates and incubated at 37° C. for 18 hours to confirm viable cell numbers. The dilution to 10^−7 was used in the following steps.
(§2) The susceptibility of clinical isolates of Staphylococcus aureus, Escherichia coli and Pseudomonas aeruginosa to the constructs designated Spm-Ad-DOPE (9a) and NCSeCH2CO—CMG(2)-Ad-DOPE was determined by broth microdilution. Actively growing cultures of each clinical isolate were prepared as described above to obtain cultures with the following turbidities (OD600):
(§3) Serial dilutions of each culture to 10^−6 were prepared and used as inocula. Volumes of 50 μL of each dilution was spread on PCA plates and incubated at 37° C. for 18 hours. A two-fold dilution series for each of the two constructs, spermine (2) and selenous acid (H2SeO3) were prepared in sterile 96-well plates. Volumes of 50 μL of inocula were dispensed into a well containing a volume of 50 μL of the serially diluted construct, spermine (2) or selenous acid (H2SeO3). Following gentle mixing the plates were incubated in the dark at 37° C. for 18 hours (200 rpm). Minimum inhibitory concentrations (MIC) were thereby observed and minimum bactericidal concentrations (MBC) determined by plating aliquots from each well.

[2] = tested on: Escherichia coli clinical isolate; experiment: as above; settings: for MBC: broth microdilution and plating, read-out: Minimum bactericidal concentration (MBC); for MIC: broth microdilution, 37° C., 18 hours, read-out: Minimum inhibitory concentration (MIC)
Experimental: as §1, §2, §3

[3] = tested on: Staphylococcus aureus clinical isolate; experiment: as above; settings: for MBC: broth microdilution and plating, read-out: Minimum bactericidal concentration (MBC); for MIC: broth microdilution, 37° C., 18 hours, read-out: Minimum inhibitory concentration (MIC)
Experimental: as §1, §2, §3

[4] = tested on: Red blood cells (RBCs; group O); experiment: Adherence of red blood cells to treated microplate well surfaces
Experimental: A stock solution of the construct designated Spm-Ad-DOPE (9a) was prepared in methanol at a concentration of 10 mg/mL. The stock solution was diluted to a concentration of 250 μg/mL in methanol and 25 μL volumes of the diluted stock solutions dispensed into each of the round bottomed wells of a multi-well microplate (Corning Inc.). The plates were allowed to dry before washing the wells 6 times with deionized water.
Red blood cells (RBCs; group O, up to 2 weeks old) were washed and re-suspended at a concentration of 1% packed cell volume (pcv) in phosphate-buffered saline (PBS). A 50 μL volume of the suspension of RBCs was dispensed into each of the wells and incubated for 1 hour at room temperature before washing 6 times with PBS. The RBCs were fixed by adding a 50 μL volume of a solution of glutaraldehyde in PBS at a concentration of 2.5% (w/v) and incubating for 10 minutes before washing each well with water and allowing to dry. The RBCs were lysed by adding a 50 μL volume of deionized water and incubating for 10 minutes before discarding the water and allowing to dry.
For scanning electron microscopy (SEM) the bottom of each well was cut from the plate and the treated surface sputter coated with platinum prior to imaging.
A two-fold serial dilution from each of the first wells was then performed. […]

Row | Structure (SMILES) | MBC [1] [µM] | MIC [1] [µM] | MBC [2] [µM] | MIC [2] [µM] | MBC [3] [µM] | MIC [3] [µM] | MBC ([1]; Pseudomonas aeruginosa) [µM] | MIC ([1]; Pseudomonas aeruginosa) [µM] | MBC ([2]; Escherichia coli) [µM] | MIC ([2]; Escherichia coli) [µM] | MBC ([3]; Staphylococcus aureus) [µM] | MIC ([3]; Staphylococcus aureus) [µM] | Attachment of RBCs to treated wells ([4]; spermine alone) | Attachment of RBCs to treated wells ([4]; spermine alone in water)
1 | O=[Se](O)O [H2SeO3, selenous acid] | >1985.01 | >1985.01 | >1985.01 | 1985.01 (≈ 256 µg/mL) | >1985.01 | 1985.01 (≈ 256 µg/mL) | – | – | – | – | – | – | – | –
2 | NCCCNCCCCNCCCN [Spermine (2), spermine] | – | – | – | – | – | – | > 3790 | 3790 (≈ 766 µg/mL) | 118 (≈ 23.9 µg/mL) | 118 (≈ 23.9 µg/mL) | 947 (≈ 192 µg/mL) | 473 (≈ 95.8 µg/mL) | not uniform or reproducible | No cells were observed to adhere to the surface
